Measurements reported in BindingDB's records for doi:10.1016/j.bmc.2020.115928 (Tu Dresden, 2021).

Assay: Inhibition of rabbit skeletal muscle myosin-2 ATPase incubated for 20 mins followed by ATP addition and measured after 20 mins

Oc1c(Br)cc(Br)cc1-c1[nH]c(Br)c(Br)c1Br [pentabromopseudilin]
IC50: 5.1 µM
